Test results: US20200323898A1, “COMPOSITIONS AND METHODS FOR TREATING ACUTE MYELOID LEUKEMIA” (MEMORIAL SLOAN KETTERING CANCER CENTER, priority 2017, published 2020)
“Also recorded” adds a separate entry of the source. Like-named read-outs stand apart in the source and are kept apart here. Values belong to the compound of their own block, whether it stands above or below them.

Columns and labels:
PDXK = target: T1, PDXK (Homo sapiens, UniProt O00764); experiment: Intracellular PLP levels (PDXK inhibition) in human Molm13 leukemic cells; format: cell-based; conditions: human Molm13 leukemic cells (FIG. 17B, 18B)
T1 construct: endogenous in cells; host or cells: human Molm13 (MOLM13) AML cells
T1 sequence (O00764 1-312): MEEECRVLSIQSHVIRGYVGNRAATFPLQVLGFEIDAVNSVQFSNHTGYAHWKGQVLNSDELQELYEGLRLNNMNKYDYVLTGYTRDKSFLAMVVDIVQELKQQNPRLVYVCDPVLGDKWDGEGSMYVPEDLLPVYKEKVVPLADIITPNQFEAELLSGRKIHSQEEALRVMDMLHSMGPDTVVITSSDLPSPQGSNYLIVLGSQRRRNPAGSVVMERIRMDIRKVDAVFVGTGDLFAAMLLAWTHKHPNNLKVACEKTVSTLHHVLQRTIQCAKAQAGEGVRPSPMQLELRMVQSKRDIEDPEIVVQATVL
Procedure: (§1) LC-MS grade solvents were purchased from Thermo Fisher Scientific (Waltham, Mass.), metabolite standards were purchased from Sigma (St. Louis, Mo.) unless stated otherwise. Nras(G12D)/MLL-AF9 cells infected with viruses encoding Pdxk shRNAs were harvested after 5 days of doxycycline induction. Human MOLM13 cells infected with viruses encoding Pdxk sgRNAs were harvested at day 11 post infection. Nras(G12D)/MLL-AF9 cells or MOLM13 cells were treated with indicated concentrations of isoniazid and harvested after 5 days treatment.
In each case, 2 million cells were collected by centrifugation at 440×g, media was aspirated and 1004 of ice-cold 10% trichloroacetic acid with or without 100 ng/mL d3-pyridoxal (d3-PL), d3-pyridoxine (d3-PN), d3-pyridoxamine (d3-PM), d3-pyridoxal phosphate (d3-PLP) (IsoSciences LLC, Ambler Pa.) was added for metabolite extraction. For experiments involving isoniazid treatment, cells were washed once with PBS to remove residual drug and minimize post-lysis reactions between isoniazid and PLP, which was confirmed by monitoring the d3-PLP internal standard. After overnight incubation at −80° C., samples were vortexed and transferred to 1.7 mL conical eppendorf tubes and centrifuged at 21,000×g for 20 min at 4° C. The supernatant was transferred to autosampler vials for LC-MS analysis. Vitamin B species separation was performed using an Agilent 1290 infinity pump and XSelect HSS T3 column (150×2.1 mm, 3.5 μm; Waters Corporation, Milford Mass.). Mobile phase A was 0.1% heptaflurobutyric acid (HFBA, Thermo Fisher, Waltham Mass.) and 0.1% formic acid (FA, Thermo Fisher, Waltham Mass.) in water, mobile phase B was 0.1% HFBA and 0.1% FA in acetonitrile. The injection volume was 10 μL and LC gradient conditions were: 0 min: 0% B; 1 min: 0% B; 7 min: 25% B; 8 min: 25% B; 9 min: 100% B; 10.5 min: 100% B, with 4.5 min of re-equilibration time. MS detection was performed using an Agilent 6230 TOF accurate mass spectrometer with Dual JetStream source operating in positive ionization mode. MS parameters were: gas temp 250° C.; gas flow: 13 L/min; nebulizer pressure: 45 psig; sheath gas temp: 225° C.; sheath gas flow: 12 L/min; VCap: 3,500 V; Fragmentor: 175 V; Skimmer: 65 V; Octopole RF: 750 V. Active mass axis correction was performed using a second nebulizer and pyridine (80.049480) and roxithromycin (837.53185). Data was acquired from m/z 50-1700 at 1.5 spectra/sec. Accurate mass (±20 ppm) and retention time was confirmed relative to the pure standards. Data analysis was performed using MassHunter software (Agilent, Santa Clara Calif.).

human leukemic cells [1] = experiment: Proliferation / growth of human leukemic cell lines cultured with compound; format: cell-based; conditions: for growth of human AML cells in vitro: indicated leukemic cell lines (FIG. 17C, 18C)
Procedure: The average and STDEV of relative cell proliferation are shown.
(§2) Mouse AML cell lines, human AML cell lines, iMEF cell line and 3T3 cell line were infected with virus encoding Cas9 (Addgene 52962, Watertown Mass.) followed with blastcitidin selection to generate Cas9 cell lines. All viral sgRNA infection experiments were performed on Cas9 cell lines. All viral shRNA infection experiments were performed on cell lines carrying rtTA3. Mouse leukemic cell lines including Nras(G12D)/MLL-AF9, MLL-AF9, Nras(G12D)/IDH, Nras(G12D)/NPM1, and IDH/Flt3 were cultured in RPMI medium supplemented with 10% Fetal Bovine Serum (FBS), L-glutamine, penicillin streptomycin, recombinant mouse SCF, IL-3 and IL-6. Human leukemic cell lines MOLM13, M12, Semk2, THP1, and K562 were cultured in RPMI medium supplemented with 10% FBS, L-glutamine, penicillin, and streptomycin. Vitamin B6 depleted medium (VB6−) was prepared by customized pyridoxin (−) RPMI (Gibco, Gaithersburg, Md.) with 10% dialyzed FBS, L-glutamine, penicillin, and streptomycin. Pyridoxin hydrochloride (Sigma, St Louis Mo.) was added back to VB6(−) medium to make the VB6 (+) medium used for leukemia and MEF culture. Control or gene targeting sgRNAs or shRNAs were delivered by lentivirus. Spin infections were performed at 37° C. and 1500 RPM for 60 minutes. After spin infection, viral supernatants were substituted with leukemic cell culture medium. For compound treatment, isoniazid was added in culture medium at indicated concentrations.
(§3) For competition and cell proliferation experiments, mouse or human leukemic cells were infected with viruses encoding sgRNAs or shRNAs. Spin infections were performed at 37 degree and 1500 RPM for 60 minutes. After spin infection, viral supernatants were substituted with leukemic cell culture medium. GFP+ percentage or cell number was monitored during culture using guava flow cytometer. The absolute cell number was measured by using flow cytometry absolute count standard (Bangs Laboratories Inc., Fishers Ind.). The experimental results were analyzed by guavasoft software.

PLP = experiment: Intracellular PLP levels by HPLC-MS in Nras(G12D)/MLL-AF9 leukemic cells cultured with isoniazid; format: cell-based, mouse; conditions: day 5 of culture, HPLC-MS (FIG. 2E)
Procedure: The abundance of PLP was measured by high-performance liquid chromatography-mass spectrometry (HPLC-MS) and normalized to the level [^3D]-labeled PLP (internal control). The average and STDEV are shown. Western blot analysis was performed to measure the expression levels of PDXK protein.
as §1
In each case, 2 million cells were collected by centrifugation at 440×g, media was aspirated and 1004 of ice-cold 10% trichloroacetic acid with or without 100 ng/mL d3-pyridoxal (d3-PL), d3-pyridoxine (d3-PN), d3-pyridoxamine (d3-PM), d3-pyridoxal phosphate (d3-PLP) (IsoSciences LLC, Ambler Pa.) was added for metabolite extraction. For experiments involving isoniazid treatment, cells were washed once with PBS to remove residual drug and minimize post-lysis reactions between isoniazid and PLP, which was confirmed by monitoring the d3-PLP internal standard. […]

mouse leukemic cells = experiment: Proliferation of mouse leukemic cell lines cultured with compound; format: cell-based; conditions: mouse leukemic cell lines with different genetic drivers, day 6 (FIG. 1I)
Procedure: as §2, with “Pyridoxin hydrochloride (Sigma, St Louis Mo.) was added back to VB6(−) medium to make the VB6 (+) medium used for leukemia and MEF culture. Control or gene targeting sgRNAs or shRNAs were delivered by lentivirus. Spin infections were performed at 37° C. and 1500 RPM for 60 minutes. After spin infection, viral supernatants were substituted with leukemic cell culture medium. For compound treatment, isoniazid was added in culture medium at indicated concentrations.” left out
as §3, with “Spin infections were performed at 37 degree and 1500 RPM for 60 minutes. After spin infection, viral supernatants were substituted with leukemic cell culture medium.” left out

bone marrow HSPCs = experiment: Proliferation of bone marrow HSPCs cultured with compound; format: cell-based, mouse
Excerpt: The average and STDEV of relative cell proliferation of 3 replicates are shown.
Bone marrow hematopoietic stem and progenitor cell isolation, culture, and compound treatment. For isolation of bone marrow cells, the bone marrow from the femur and tibia was flushed into ice cold PBS buffer. After red blood cell lysis with ammonium chloride (STEMCELL 07850, Vancouver Canada), the bone marrow cells were resuspended with PBS and filtered into a round bottom tube with cell strainer cap. The hematopoietic cells lineages were stained with biotin mouse lineage panel (BD Biosciences 559971, San Jose Calif.), then isolated by magnetic beads separation. For c-Kit positive cells, mouse hematopoietic cells were isolated from bone marrow using MACS CD117 isolation system. Purified bone marrow cells were cultured in RPMI medium supplemented with recombinant mouse SCF, IL-3, and IL-6. Control or Pdxk targeting sgRNAs or shRNAs were delivered by lentivirus. Spin infections were performed at 37 degree and 1500 RPM for 60 minutes. After spin infection, viral supernatants were substituted with leukemic cell culture medium. For compound treatment, isoniazid was added in culture at indicated concentrations.

[2] = tested on: Nras(G12D)/MLL-AF9 leukemia; experiment: AML mouse model: sub-lethally irradiated mice transplanted with Nras(G12D)/MLL-AF9 cells, compound treatment; format: in vivo; conditions: for animal survival / leukemia disease progression (luciferase signal): daily dosing vs PBS control, isoniazid 90 mg/kg intraperitoneally
Excerpt: PDXK shRNAs were cloned into a doxycycline inducible H2 vector (D9891-25G, Sigma-Aldrich, St. Louis, Mo.). Leukemic cells were infected with viruses encoding shRNAs targeting Renilla luciferase or PDXK, followed by either in vitro culture or transplantation. For in vitro culture experiments, doxycycline was supplemented into culture medium, and the percentage of GFP^+ cells was monitored. For in vivo AML mouse model experiments, the dietary feed of the mice was supplemented with doxycycline, and luciferase expression levels were monitored. For in vivo drug efficacy experiments, leukemic cells were transplanted into sub-lethally irradiated mice. Control PBS or isoniazid (90 mg/kg) was injected 6 hours after transplant and then daily into the transplant containing mice, and luciferase expression levels were monitored. High-performance liquid chromatography-mass spectrometry (HPLC-MS) was performed as previously described in A. M. Intlekofer et al., Nat Chem Biol 13, 494-500 (2017).
For isoniazid injection experiment, Nras(G12D)/MLL-AF9 leukemic cells were collected and resuspended in PBS at a concentration of 5 million/ml. 5-6 weeks old B6-LY5 mice (Charles River Labs, Wilmington Mass.) were sublethally irradiated (450 cGy) and transplanted with 1 million leukemic cells through tail vein injection. PBS or 90 mg/kg isoniazid were intraperitoneally injected daily.
The leukemia disease progress was monitored by in vivo bioluminescent imaging using IVIS Lumina image system (Xenogen) every 3 days. Before imaging, all mice were anesthetized with 2% isoflurane, and anesthesia was also maintained during the image acquisition inside Xenogen dark chamber. 300 mg/kg D-Luciferin (Gold Biotechnology Olivette, Mo.) in PBS at 15 mg/ml was intraperitoneally injected ˜12 minutes before image capturing. The bioluminescence was acquired and quantitatively analyzed by the Living Image software.

[3] = tested on: Nras(G12D)/MLL-AF9 leukemic cells; experiment: Metabolite rescue of isoniazid proliferative block in Nras(G12D)/MLL-AF9 leukemic cells; format: cell-based, mouse; conditions: exogenous addition of metabolite with isoniazid, day 4 (FIG. 4D-4F)
Excerpt: The average and SEM of fold of cell proliferation are shown. “*” represents p<0.05 of one-way ANOVA test, “**” represents p<0.01 of one-way ANOVA test, “***” represents p<0.001 of one-way ANOVA test. […] The average and SEM of fold of cell proliferation are shown. “*” represents p<0.05 of one-way ANOVA test, “**” represents p<0.01 of one-way ANOVA test, “***” represents p<0.001 of one-way ANOVA test. […] The average and SEM of fold of cell proliferation are shown. “*” represents p<0.05 of one-way ANOVA test, “**” represents p<0.01 of one-way ANOVA test, “***” represents p<0.001 of one-way ANOVA test.

[4] = tested on: Nras(G12D)/MLL-AF9 leukemic cells; experiment: Viability of Nras(G12D)/MLL-AF9 leukemic cells cultured with AOA or myriocin; format: cell-based, mouse; conditions: day 3 (FIG. 33A, 34A)
[5] = tested on: human HL60 (Human promyelocytic leukemia) cells; experiment: Human HL60 cells cultured with myriocin; format: cell-based; conditions: day 4 of culture (FIG. 33B)
human leukemic cells [6] = experiment: Viability of human leukemic cell lines cultured with AOA; format: cell-based; conditions: human Molm13, Thp1, ml2, Nomo1, Semk2, Kasumi leukemic cells, day 3 (FIG. 34B-34G)

PDXK inhibition (PDXK): can nhibit PDXK
intracellular levels of PLP (PDXK): reduced intracellular levels of PLP
Structure (SMILES): CC[C@H](CO)Nc1nc(N(C)Cc2ccccc2)c2ncn(C(C)C)c2n1 [aftin-4]
growth of human AML cells in vitro (human leukemic cells [1]): can suppress the growth; also recorded: inhibited the growth

Structure (SMILES): NNC(=O)c1ccncc1 [isoniazid]
intracellular PLP levels (PLP): reduced intracellular PLP levels
proliferation of mouse leukemic cells (mouse leukemic cells): blocked proliferation
proliferation of human leukemic cells (human leukemic cells [1]; human leukemic cell lines, day 6 of culture (FIG. 7G, 25A-25C)): blocked proliferation
proliferation of bone marrow HSPCs (bone marrow HSPCs): only a subtle reduction
proliferation of bone marrow lineage negative HSPCs (bone marrow HSPCs): little effect
animal survival [2]: produced a survival advantage
leukemia disease progression (luciferase signal) [2]: delayed disease progression
reduction of PLP in plasma and bone marrow cells ([2]; isoniazid 90 mg/kg intraperitoneally daily, day 12 post transplant, HPLC-MS (FIG. 13B)): ~25%

Structure (SMILES): NC(=O)C[C@H](N)C(=O)O [asparagine]
rescue of proliferative block produced by isoniazid [3]: partially rescued

Structure (SMILES): NCCCCN [putrescine]
rescue of proliferative block produced by isoniazid [3]: partially rescued

Structure (SMILES): COCc1c(CO)cnc(C)c1O [gingkotoxin]
PDXK inhibition (PDXK): can inhibit PDXK
intracellular levels of PLP (PDXK): reduced intracellular levels of PLP
intracellular levels of PLP (PDXK; listed as ginkgotoxin): reduce intracellular levels of PLP
growth of human AML cells in vitro (human leukemic cells [1]): suppressed tumor growth
growth of human AML cells in vitro (human leukemic cells [1]; listed as ginkgotoxin): can suppress the growth
proliferation of bone marrow lineage negative HSPCs (bone marrow HSPCs; bone marrow lineage negative HSPCs, day 6 (FIG. 26A-26B)): little effect
animal survival [2]: improved survival
leukemia disease progression (luciferase signal) [2]: slowed down disease progression

Structure (SMILES): O=c1ccn([C@@H]2O[C@H](CO)[C@@H](O)[C@H]2O)c(=O)[nH]1 [uridine]
rescue of proliferative block produced by isoniazid [3]: partially rescued

Structure (SMILES): CCCCCCC(=O)CCCCCC/C=C/C[C@@H](O)[C@H](O)[C@@](N)(CO)C(=O)O [myriocin]
viability of leukemic cells in vitro [4]: reduced the viability
sensitivity of HL60 cells to treatment [5]: less sensitive

Structure (SMILES): NOCC(=O)O [AOA, aminooxyacetic acid]
animal survival [2]: extended survival
leukemia disease progression (luciferase signal) [2]: significantly delayed leukemia disease maintenance
viability of leukemic cells in vitro [4]: reduced the viability
viability of leukemic cells in vitro (human leukemic cells [6]): reduced the viability
